Where two headings read alike, the source gives them in different places.

One data set deals with Alternaria solani. In words: Alternaria test (tomato)/protective. The note with it: tomato plants, protective, application rate 750 g/ha, evaluation 7 days after inoculation. In kind it is in vivo. As to the method: Alternaria Test (Tomato)/Protective
• Solvent: 49 parts by weight of N,N-dimethylformamide • Emulsifier: 1 part by weight of alkylaryl polyglycol ether
To produce a suitable preparation of active compound, 1 part by weight of active compound is mixed with the stated amounts of solvent and emulsifier, and the concentrate is diluted with water to the desired concentration.
To test for protective activity, young tomato plants are sprayed with the preparation of active compound at the stated application rate. 1 day after the treatment, the plants are inoculated with a spore suspension of Alternaria solani and are then allowed to stand at 100% relative humidity and 20° C. for 24 h. The plants are then allowed to stand at 96% relative atmospheric humidity and a temperature of 20° C.
Evaluation is carried out 7 days after the inoculation. 0% means an efficacy which corresponds to that of the control, whereas an efficacy of 100% means that no infection is observed.

Another data set relates to Puccinia recondite. In words: Puccinia test (wheat)/protective. The class given is in vivo. The note with it: 240 h, wheat plants, protective, application rate 500 g/ha, evaluation 10 days after inoculation, solvent/emulsifier parts 25/0.5, 25/0.6 or 50/1.0, read-out: % efficacy. As to the method: Puccinia Test (Wheat)/Protective • Solvent: N,N-dimethylacetamide • Emulsifier: alkylaryl polyglycol ether […] To test for protective activity, young plants are sprayed with the preparation of active compound at the stated application rate. After the spray coating has dried on, the plants are sprayed with a conidia suspension of Puccinia recondite. […] The plants are then placed in a greenhouse at a temperature of about 20° C. and a relative atmospheric humidity of 80% to promote the development of rust pustules.

The subject of the next data set is Botrytis cinerea. In words: Botrytis test (bean)/protective. In kind it is in vivo. Conditions: 48 h, bean plants, protective, application rate 500 g/ha, evaluation 2 days after inoculation, read-out: % efficacy. As to the method:
Botrytis Test (Bean)/Protective
• Solvents:24.5 parts by weight of acetone 24.5 parts by weight of dimethylacetamide • Emulsifier: 1 part by weight of alkylaryl polyglycol ether
(§1) To produce a suitable preparation of active compound, 1 part by weight of active compound is mixed with the stated amounts of solvents and emulsifier, and the concentrate is diluted with water to the desired concentration.
To test for protective activity, young plants are sprayed with the preparation of active compound at the stated application rate. After the spray coating has dried on, 2 small pieces of agar colonized with Botrytis cinerea are placed onto each leaf. The inoculated plants are placed in a dark chamber at about 20° C. and 100% relative atmospheric humidity.
2 days after the inoculation, the size of the infected areas on the leaves is evaluated. 0% means an efficacy which corresponds to that of the control, whereas an efficacy of 100% means that no infection is observed.

Data set [1] can be described thus: logP determination by HPLC on reversed-phase column (EEC Directive 79/831 Annex V.A8). In kind it is physicochemical. Conditions: reversed-phase C18 HPLC column. As to the method: The given logP values were determined in accordance with EEC Directive 79/831 Annex V.A8 by HPLC (High Performance Liquid Chromatography) on a reversed-phase column (C 18). Temperature: 43° C. […] Calibration was carried out using unbranched alkan-2-ones (having 3 to 16 carbon atoms) with known logP values (determination of the logP values by the retention times using linear interpolation between two successive alkanones).

For another data set, the system named is Venturia inaequalis. Kind of data set: Venturia test (apple)/protective. The note with it: 240 h, apple plants, protective, application rate 100 g/ha, evaluation 10 days after inoculation, read-out: % efficacy. The class given is in vivo. As to the method:
Venturia Test (Apple)/Protective
• Solvents: 24.5 parts by weight of acetone 24.5 parts by weight of dimethylacetamide • Emulsifier: 1 part by weight of alkylaryl polyglycol ether
as §1
To test for protective activity, young plants are sprayed with the preparation of active compound at the stated application rate. After the spray coating has dried on, the plants are inoculated with an aqueous conidia suspension of the apple scab pathogen Venturia inaequalis and then remain in an incubation cabin at about 20° C. and 100% relative atmospheric humidity for 1 day.
The plants are then placed in a greenhouse at about 21° C. and a relative atmospheric humidity of about 90%.
Evaluation is carried out 10 days after the inoculation. 0% means an efficacy which corresponds to that of the control, whereas an efficacy of 100% means that no infection is observed.

Turning to `CC(CC(C)(C)C)c1ccccc1NC(=O)C1=C(C(F)(F)F)OCCS1` (stereo not shown) [Example 2, N-[2-(1,3,3-trimethylbutyl)phenyl]-6-trifluoromethyl-2,3-dihydro-1,4-oxathiin-5-carboxamide], the “% efficacy” value in the data set with Alternaria solani turned out to be 100%. The pest or weed control at 500 g/ha in the data set on Puccinia recondite and with Botrytis cinerea was 100% each time. The chromatographic logP in data set [1] (pH 2.3, C18, 43° C., read-out: logP (pH 2.3)) is 4.18. Also, in the data set with Venturia inaequalis, the pest or weed control at 100 g/ha was 98%.

On to `O=C(Nc1ccccc1-c1ccc(Cl)c(Cl)c1)C1=C(C(F)(F)F)OCCS1` [Example 19], for which the “% efficacy” value with Alternaria solani amounted to 100%. In addition, the pest or weed control at 500 g/ha in the data set on Puccinia recondite and in the data set with Botrytis cinerea was 100% in each case. Also, in data set [1] (Table 1 logP / m.p., C18, 43° C., acidic range (pH 2.3), read-out: logP), the chromatographic logP was 3.91. Further, the pest or weed control at 100 g/ha with Venturia inaequalis worked out at 100%.

Source of the values: patent US7847108B2, “Oxathiin carboxamides” (Bayer CropScience AG, priority 2003, dated 2010).
